What was measured:
[1] = Adverse events in the single dose AF/AFL study (Example 1); format: in vivo, human
From the text: (§1) The vanoxerine or identical appearing placebo was randomly assigned and administered in a double-blinded fashion.

[2] = Preliminary studies of daily use over 7, 10 and 14 days; format: in vivo; settings: 75, 100, 125 and 150 mg a day over 7, 10 and 14 days
From the text: However, control and prevention of events of cardiac arrhythmia are important to these patients to prevent future re-occurrences and the deleterious effects and morbidity.

[3] = Daily dosing for 7 days in four patients (Example 4); format: in vivo, human; settings: 50, 100 and 150 mg daily, all patients
[4] = Daily dosing for 14 days in healthy patients (Example 3); format: in vivo, human; settings: 25, 75 and 125 mg daily for 14 days, meal 15 minutes prior to dosing
Description: A standardized meal was served 15 minutes prior to each dosing.

[5] = test system: recent onset symptomatic AF/AFL; test: Randomised double-blind single oral dose study: conversion of recent onset symptomatic AF/AFL to sinus rhythm (Example 1); format: in vivo, human; settings: for Conversion of Atrial Flutter, %: pure atrial flutter subjects (N 4), any time within 24 hours
Description: as §1
Inclusion criteria included: male or female over the age of […], symptomatic AF/AFL for more than 3 hours and less than 7 days, as dated by symptoms, and adherence to local clinical standards or the […] practice guidelines for AF/AFL regarding thromboembolic event prevention and treatment
Exclusion Criteria Included: • (a) Systolic blood pressure <100 mmHG, HR <50 bpm • (b) Average QTcF >440 ms, […] >140 ms • (c) Paced atrial or ventricular rhythm • (d) Serum potassium <3.5 meq/L • (e) History of receiving another Class 1 or Class III antiarrhythmic drug within 3 days of randomization, amiodarone (oral or IV) within 3 months • (f) Acute coronary syndrome within 30 days prior to randomization • (g) Aortic stenosis with AVA ≦1.0 cm^2 • (h) Mitral stenosis with MVA of <1.5 cm^2 • (i) Acute pulmonary edema/embolism • (j) Stroke within 30 days or TIA within 48 hours • (k) Untreated hyperthyroidism • (l) Acute pericarditis • (m) Postoperative AF/AFL within 7 days • (n) History of failed Direct current cardioversion • (o) History of polymorphic ventricular tachycardia (e.g. Torsade de Pointes) • (p) History or family history of long QT syndrome • (q) History of ventricular tachycardia requiring drug or device therapy • (r) History of NYHA Heart Failure Class III or IV or recent (within 1 month) onset of heart failure not related to rapid ventricular response AF • (s) Ejection fraction of 35% or less • (t) History of prior ablation therapy for cardiac arrhythmias
4-Hour Efficacy Endpoints: • (a) the proportion of subjects who convert to sinus rhythm for at least 1 minute through 4 hours after start of study drug. • (b) the proportion of subjects in sinus rhythm at 4 hours after start of study drug • (c) time to restoration of sinus rhythm within 4 hours
24-Hour Efficacy Endpoints • (a) the proportion of subjects who convert to sinus rhythm for at least 1 minute through 24 hours after start of study drug. • (b) the proportion of subjects in sinus rhythm at 24 hours after start of study drug • (c) time to restoration of sinus rhythm within 24 hours
Statistical Considerations: • (a) Placebo subjects in all dose cohorts pooled to create one placebo dose group for comparison to the active dose groups • (b) each dose group compared separately with placebo • (c) Fisher's exact tests for difference in proportions between each dose level and placebo • (d) Time to restoration tested using the Kaplan-Meier method with difference in survivor functions; Log-Rank test used to compare each dose level with placebo • (e) No correction for multiple comparisons among dose groups.

[6] = Daily dosing for 11 consecutive days, PK and hemodynamics (Example 2); format: in vivo, human
[7] = human, in vivo
From the text: Furthermore, steady state plasma levels are achieved within 3 days of oral dosing in some studies and up to 14 days in other studies. In human studies, the typical time is between about 3-11 days for reaching steady state status. […] This provides for an opportunity to achieve steady state plasma levels for restoration or maintenance of normal sinus rhythm in mammals.

For Fc1ccc(C(OCCN2CCN(CCCc3ccccc3)CC2)c2ccc(F)cc2)cc1 [vanoxerine, 1-[2-[bis(4-fluorophenyl)methoxy]ethyl]-4-(3-phenylpropyl)piperazine], the “Number of adverse events reported” value ([1]; 200 mg) was 8 AEs, the “Subjects reporting adverse events, N (%)” value ([1]; 200 mg (22 subjects)) was 4 (18%) subjects and the “Number of adverse events reported” value ([1]; 300 mg) was 12 AEs. For the same compound, the “Subjects reporting adverse events, N (%)” value ([1]; 300 mg (25 subjects)) was 7 (28%) subjects, the “Number of adverse events reported” value ([1]; 400 mg) was 23 AEs and the “Subjects reporting adverse events, N (%)” value ([1]; 400 mg (25 subjects)) was 10 (40%) subjects. The Tolerability ([1]; 200, 300 and 400 mg single doses) was “well tolerated at all doses”, the “1:1 AFL post dose” value ([1]; all doses) was “No 1:1 AFL seen post dose in any subject” and the “Serious adverse events, all doses” value ([1]; all doses, neither related to the study drug) was “two”. For the same compound, the Proarrhythmia ([1]; single doses 200-400 mg) was “absence of proarrhythmia”, the “Heart rate and systolic blood pressure” value [2] was “may lead to increased heart rate and systolic blood pressure” and the “Time to steady state levels” value [3] was “within one week”. For the same compound, the Adverse events [4] was “No significant adverse events”, the “Percent conversion to sinus rhythm” value ([5]; 200 mg single dose, 0-4 hr) was 18% and the “Percent conversion to sinus rhythm” value ([5]; 200 mg single dose, 0-8 hr) was 45%. The “Percent conversion to sinus rhythm” value ([5]; 200 mg single dose, 0-24 hr) was 59%, the “Conversion of Atrial Flutter, %” value ([5]; 200 mg) was 50% and the “Percent conversion to sinus rhythm” value ([5]; 300 mg single dose, 0-4 hr) was 40%. The “Percent conversion to sinus rhythm” value ([5]; 300 mg single dose, 0-8 hr) was 52%, the “Percent conversion to sinus rhythm” value ([5]; 300 mg single dose, 0-24 hr) was 64% and the “Conversion of Atrial Flutter, %” value ([5]; 300 mg) was 75%. For the same compound, the “Percent conversion to sinus rhythm” value ([5]; 400 mg single dose, 0-4 hr) was 52%, the “Percent conversion to sinus rhythm” value ([5]; 400 mg single dose, 0-8 hr) was 76% and the “Percent conversion to sinus rhythm” value ([5]; 400 mg single dose, 0-24 hr) was 84%. For the same compound, the “Conversion of Atrial Flutter, %” value ([5]; 400 mg) was 75%, the “Conversion to sinus rhythm” value ([5]; all doses of vanoxerine, at about 7 hours) was “greater than 40%” and the “Conversion to sinus rhythm” value ([5]; all doses, at 12 hours) was “greater than 50%”. The “Conversion to sinus rhythm” value ([5]; all doses, at about 16 hours) was ~60%, the Plasma levels ([6]; 25 mg daily) was “not detectable after 8 hours” and the PK linearity ([6]; 50, 75 and 100 mg doses) was “linear and dose proportional”. For the same compound, the Plasma levels ([6]; 50, 75 and 100 mg doses) was “detectable at 24 hours”, the “Time at which steady state was reached” value ([6]; 50, 75 and 100 mg doses) was ≤ 8 days and the “Heart rate and systolic blood pressure” value ([6]; 75 and 100 mg doses) was “increased slightly in most subjects”. The “Time for reaching steady state status” value [7] was 3 to 11 days.

From patent US20160051542A1 (CHANRX CORPORATION, priority 2013, published 2016)
